Laboratory results from ChEMBL document CHEMBL4138278, “Neothioviridamide, a Polythioamide Compound Produced by Heterologous Expression of a Streptomyces sp. Cryptic RiPP Biosynthetic Gene Cluster” (J Nat Prod, 2018).

Tests used:
Assay type in all cases: functional, cell-based
SK-OV-3 = assay: Cytotoxicity against human SKOV3 cells assessed as reduction in cell viability after 72 hrs by CellTiter-Glo luminescence assay; settings: SK-OV-3, 72 h
[1] = Cytotoxicity against human ACC-MESO1 cells assessed as reduction in cell viability after 72 hrs by CellTiter-Glo luminescence assay; settings: ACC-MESO-1, 72 h
Jurkat = assay: Cytotoxicity against human Jurkat cells assessed as reduction in cell viability after 72 hrs by CellTiter-Glo luminescence assay

## CSCCC(NC(=S)C(NC(=O)C(C)=O)C(C)C)C(=S)NC(C)C(=O)NC(C)C(=S)NC(C)C(=S)NC(C)C(=O)NC1C(=O)NC(C(C)C)C(=O)NC(C)C(=O)NC(Cc2ccccc2)C(=O)NC(C(O)c2cn(C)c[n+]2C)C(=O)N/C=C\SC1C (stereo not drawn)
SK-OV-3
  IC50: 2100 nM
[1]
  IC50: 700 nM
Jurkat
  IC50: 400 nM
